The values below are quoted from earlier work in PMC11064828 (Journal of Nuclear Medicine, 2024).

Data set [1] relates to CAIX. The conditions noted are these: 2 clinical trials of metastatic ccRCC. From the text: As a direct transcriptional target of hypoxia-inducible factor 1α, CAIX is overexpressed in several hard-to-treat tumors, including ccRCC, CRC, breast cancer, and PDAC ([2],[9]–[11]), making it a promising therapeutic target. However, to date, the transition of CAIX-targeting therapies to clinical settings has been poor ([7],[13]).

For data set [2], the system named is CAIX. The following applies: phase 1 study of advanced solid tumors. From the text:
As a direct transcriptional target of hypoxia-inducible factor 1α, CAIX is overexpressed in several hard-to-treat tumors, including ccRCC, CRC, breast cancer, and PDAC ([2],[9]–[11]), making it a promising therapeutic target. However, to date, the transition of CAIX-targeting therapies to clinical settings has been poor ([7],[13]). Several small-molecule inhibitors of CAs, including CAIX, have been developed ([7],[13]).

In the case of “G250 to the β-emitter [^177Lu]Lu: anti-CAIX monoclonal antibody G250 conjugated to the β-emitter [^177Lu]Lu”, the dose-limiting toxicity entry in data set [1] is “dose-limiting myelotoxicity”.

Regarding `NS(=O)(=O)c1ccc(NC(=O)Nc2ccc(F)cc2)cc1` [SLC-0111], in data set [2], the objective responses entry is “no objective responses” and the tolerability result is given as “well tolerated”.
